Measured values taken from patent US8044022B2, “Hyaluronic acid binding peptides enhance host defense against pathogenic bacteria” (priority 2005, dated 2011).
Non-standard residues stand in square brackets, D forms with d. Residues, ends and D or L forms follow the SMILES beside them. No end group written: not given here.

Assays:
human red blood cells = assay: Hemolytic activity, hemoglobin release from red blood cells (12 hour protocol)
Method: Determination of hemolytic activity is measured through the release of hemoglobin from human red blood cells as measured spectrophotometrically.
Briefly, a dilution series of the peptide was prepared in two-fold dilutions from 512 to 1 μg/mL. Triplicate determinations of each peptide concentration were added to 1% human red blood cells and incubated for 12 hours at 37° C. The negative control for hemolysis consisted of 1% red blood cells with no peptide added. The positive control for hemolysis was 1% red blood cells in 0.15M NH4Cl. Hemoglobin release was measured at an absorbance of 562 nm.
Percent hemolysis is calculated as the ratio of the optical density (OD) of the peptide relative to the OD of the positive control for hemolysis.

[1] = system: Wild Type GAS (HA encapsulated); assay: Fluorometry binding of FITC-conjugated peptide to encapsulated GAS; set-up: species or system Group A Streptococcus
Method: (§1) Bacterial strains: GAS strain 950771 is a moderately encapsulated M3 clinical isolate from a child with post-varicella necrotizing fasciitis and sepsis, and an isogenic capsule deficient mutant, 188, derived from 950771. GAS were grown in Todd-Hewitt broth (Difco) to mid-exponential phase OD650 of 0.15 at 37° C. for all experiments. Commercially available trypticase-soy agar medium supplemented with 5% vol/vol sheep blood (BAP)(PML Microbiologicals, British Columbia, Canada) were used for all plate cultures. S. equi s(ATCC 53185) and P. multocida (ATCC 11039) were purchased from ATCC and cultured as recommended. Briefly, S. equi was cultured in Todd-Hewitt broth and S. uberis and P. multocida were cultured in Brain heart infusion (Difco) to OD 650 of 0.15 at 37° C. Quantitative cultures were performed in parallel with each experiment to verify the multiplicity of infection (MOI) of the inoculum.
(§2) Binding of HABP to HA and HA-encapsulated bacteria: To assess whether HABP are able to associate specifically with the GAS capsule, bacteria were cultured to mid-log phase, for maximal HA capsule expression, and incubated with either 10 μg/ml of FITC-conjugated HABP01 or SCRM, with purified HA at 1 mg/ml, as a positive control, or an isogenic mutant strain of GAS deficient in HA capsule, as a negative control. A GAS-specific antibody was used to control for the number of bacteria per well.

[2] = Fluorometry binding of FITC-conjugated peptide to purified HA in well; set-up: species or system rooster
Method: Lyophilized synthetic peptides were resuspended in PBS pH7.4 prior to use in either in vitro or in vivo experiments. Fluorescein conjugation of HABP01 and SCRM was performed using 5,6 carboxyfluorescein, succinimidyl ester (5,6 FAM) (Molecular Probes, Portland, Oreg.) as per manufacturer's instructions and separated on a Sephadex G-25 column (Amersham, Piscataway, N.J.). Purified, high molecular weight rooster comb HA (Sigma-Aldrich, St Louis, Mo.) was used as a positive control for BP binding.
as §2

S. equi = assay: Bacterial translocation through polarized keratinocyte cultures (Transwell); assay type: cell-based, Streptococcus equi; conditions: 100 μg/ml; vs PBS or SCRM
Method: (§3) Cell cultures: For the preparation of in vitro keratinocyte cultures, human primary OKP7 cells were derived from the oropharynx. Keratinocytes were seeded at 5×10^5 cells per well onto polycarbonate Transwell membrane supports (12 well plates, 3.0 μm pore size; Costar) or tissue culture treated plastic ware and cultured for 5-10 days at 37° C. with 5% humidified CO2 in cSFM medium with daily medium changes. Once confluent, the calcium concentration of the cSFM was increased to 1.2 mM and cells were cultured for 2 more days, before the integrity of the monolayer was assessed by measuring permeability to sodium fluorescein, and in some experiments, by measuring transepithelial electrical resistance.
(§4) Infection procedures: Keratinocyte layer cultures in Transwell inserts were inoculated in the upper chamber with GAS, S. equi, S. uberis, and P. multocida at a multiplicity of infection (MOI) of 1 bacterium per keratinocyte in the presence or absence of HABP01 or SCRM. Infected cultures were incubated at 37° C. with 5% CO2 for the desired time. In translocation experiments, Transwell inserts containing the keratinocytes were moved to new wells containing fresh medium every 2 hours to prevent overgrowth of bacteria that had translocated through the keratinocytes layer to the lower chamber. Bacterial translocation was quantified by culturing medium from the lower chamber at 2-hour intervals. […]

Acapsular GAS = assay: Fluorometry binding of FITC-conjugated peptide to capsule-deficient GAS; set-up: species or system Group A Streptococcus
Method: as §1, §2

GAS [3] = assay: Bacterial translocation through polarized keratinocyte cultures (Transwell); assay type: cell-based, Group A Streptococcus; conditions: vs PBS or SCRM
Method: as §3
Infection procedures: Keratinocyte layer cultures in Transwell inserts were inoculated in the upper chamber with GAS, S. equi, S. uberis, and P. multocida at a multiplicity of infection (MOI) of 1 bacterium per keratinocyte in the presence or absence of HABP01 or SCRM. Infected cultures were incubated at 37° C. with 5% CO2 for the desired time. In translocation experiments, Transwell inserts containing the keratinocytes were moved to new wells containing fresh medium every 2 hours to prevent overgrowth of bacteria that had translocated through the keratinocytes layer to the lower chamber. Bacterial translocation was quantified by culturing medium from the lower chamber at 2-hour intervals.
Bacterial translocation studies were performed to assess the impact of HABP01 on bacterial paracellular translocation through polarized keratinocyte cultures.
Incubation of GAS in the presence of HABP33, HABP35 and HABP42, also delayed GAS translocation. At two hours after the addition of GAS to the keratinocytes, approximately 530 CFU of GAS were detected in the lower level in cultures treated with PBS or SCRM peptide.

P. multocida = assay: as above; assay type: cell-based, Pasteurella multocida; conditions: 100 μg/ml; vs PBS or SCRM
Method: as §3, §4

Staphylococcus aureus = assay: as above; assay type: cell-based; conditions: 100 μg/ml; vs PBS or SCRM
[4] = system: GAS internalization by keratinocytes; assay: Bacterial internalization by keratinocyte monolayers; assay type: cell-based, Group A Streptococcus / human keratinocytes; conditions: 100 μg/ml, 4 hours
Method: Effect of HABP on bacterial internalization by keratinocytes. Encapsulated GAS are poorly internalized by keratinocytes. Yet in the presence of HABPs, intracellular encapsulated GAS are observed by microscopy. To quantify this internalization, keratinocyte monolayers were infected with HA-encapsulated bacteria in the presence of 100 μg/ml of either HABP01 or SCRM for 4 hours. Penicillin and gentamicin were added at 3 hours to kill extracellular bacteria and cells were harvested. Bacteria treated with HABP01 were internalized approximately 40-fold more efficiently than SCRM-treated or untreated samples, and at similar levels to those obtained with acapsular GAS. Internalization of acapsular GAS was unaffected by either peptide.

GAS [5] = assay: Opsonophagocytic assay with human neutrophils; assay type: cell-based, Group A Streptococcus; conditions: 50 μg/ml, 2 hours incubation with human neutrophils, 10% absorbed human serum
Method: Encapsulated GAS are resistant to killing by neutrophils in opsonophagocytic assays in the absence of antibodies that bind the bacterial surface. HABPs binding to the bacterial surface may facilitate neutrophil cytotoxicity. Opsonophagocytic assays were performed wherein GAS were incubated with 50 μg/ml of SCRM, HABP01 or HABP35 and mixed with human neutrophils in medium containing 10% absorbed human serum. Aliquots (25 μl) for quantitative culture were withdrawn immediately after mixing neutrophil with GAS and after 2 hr incubation at 37° C. The log increase or decrease in CFU's was calculated. After 2 hours of incubation, there was about a 1.5 log increase in CFU's for GAS treated with PBS or SCRM.

[6] = Surface plasmon resonance (Biacore T-100) binding of peptides to immobilized biotin-labeled hyaluronic acid; set-up: species or system rooster; conditions: SPR, biotin-HA immobilized on streptavidin chip
Method: Surface plasmon resonance spectroscopy (SPR) studies were performed on a Biacore T-100 to quantitate the binding of peptides to hyaluronic acid (HA). Biotin-labeled hyaluronic acid (Sigma B1557, hyaluron sodium salt from rooster comb with >97% purity, average approximately 850 kDd, 98% labeled) was immobilized on one of the four flow cells of a streptavidin-coated series S sensor chip SA. […] Peptides were then injected across the surface and the degree of binding interaction is measured in response units (RU).
The average net binding for HABP35 to HA was 399±77 RU or significant binding. The other HA binding peptides also had positive RU values.

S. aureus strain PS80 = assay: Mouse model of S. aureus surgical wound infection; assay type: in vivo, C57BL6 mice; conditions: 100 μg into wound at time of challenge with 10^2 CFU; 3 days later
Method: Bacterial strains. S. aureus strain PS80 (serotype 8) was obtained from the American Type Culture collection (#27700) and is a potent inducer of intraabdominal abscess formation. S. aureus COL is a methicillin resistant strain that produces a serotype 5 capsule. Staphylococci were cultivated for 24 h at 37° C. on Columbia agar (Difco Laboratories, Detroit, Mich.) supplemented with 2% NaCl.
Mouse model of S. aureus wound infection. Mice (C57BL6, male, 6-8 wk old) were obtained from Jackson Laboratories (Bar Harbor, Me.). Groups of mice (N=4/group/experiment) were anesthetized with 100 mg/kg ketamine and 10 mg/kg xylazine, their right thighs were shaved, and the surgical area was disinfected with iodine and 70% ethanol. An incision was made in the skin to expose the thigh muscle, and a 1-cm incision was made with a scalpel into the thigh muscle to the depth of the bone. The muscle was then closed with one 4-0 silk suture, and 10 μl of a S. aureus suspension ranging in dose from 10^2 to 10^4 CFU was introduced into the incision under the suture. The skin was closed with four additional Prolene sutures. The mice were euthanized at 3 days post-surgery. The wounded muscle tissue was excised, weighed (˜0.08 g), and homogenized in 1 ml of tryptic soy broth. Serial dilutions of the homogenates were plated in duplicate and results were expressed as CFU/g tissue. Peptides were administered to animals in two ways. For most experiments, HABPs were solubilized in PBS and administered with a pipet into the wound in a 10 μl volume following challenge with bacteria. A 100 μg dose was used for most experiments. For therapeutic studies, peptide was administered via a 1 ml tuberculin syringe fitted with a 25 gauge needle in a 0.25 ml volume injected into the thigh muscle containing the wound distal from the incision site.
Gross pathology and histologic analysis of host response. […] Histological examination of these wounds confirmed these findings. Muscle tissue was harvested from mice at designated intervals post-surgery, fixed in 10% buffered formalin, and mounted in paraffin; 5 to 6-μm sections were cut and stained with hematoxylin and eosin for microscopic examination. […] The cellular infiltrate was primarily comprised of PMNs and fibrin.
Statistical analyses. All animal experiments were performed at least two times and the data pooled. Comparison of S. aureus CFU/g tissue was made by the Welch modification of the unpaired Student t test (InStat, GraphPad Software, San Diego, Calif.).

[7] = fluorometry, HABP35 also confocal microscopy, data not shown

CC[C@H](C)[C@H](NC(=O)[C@H](CCCCN)NC(=O)[C@H](CCC(N)=O)NC(=O)[C@H](CCCCN)NC(=O)[C@@H](N)CC(C)C)C(=O)N[C@@H](CCCCN)C(=O)N[C@@H](Cc1c[nH]cn1)C(=O)N[C@H](C(=O)N[C@H](C(=O)N[C@@H](CCCCN)C(=O)N[C@@H](CC(C)C)C(=O)N[C@@H](CCCCN)C(=O)N[C@H](C(=O)N[C@H](C(=O)N[C@H](C(=O)N[C@@H](CCCCN)C(=O)N[C@@H](CC(C)C)C(=O)N[C@@H](CCCNC(=N)N)C(=O)N[C@@H](CO)C(=O)N[C@@H](CCC(N)=O)C(=O)N[C@@H](CC(C)C)C(=O)N[C@H](C(=O)N[C@@H](CCCCN)C(=O)N[C@@H](CCCNC(=N)N)C(=O)N[C@@H](CCCCN)C(=O)N[C@@H](CCC(N)=O)C(=O)N[C@@H](CC(N)=O)C(N)=O)C(C)C)C(C)C)C(C)C)C(C)C)C(C)C)C(C)C [HABP35] (H-LKQKIKHVVKLKVVVKLRSQLVKRKQN-NH2)
hemolytic activity (human red blood cells; highest concentration tested, 512 μg/mL, 1% human red blood cells, 12 hours, 37° C.): minor hemolytic activity

STMMSRSHKTRSHHV [HABP01]
binding to encapsulated GAS (in words) [1, 7]: bound specifically | Relative binding ([1]; substrate in well: Wild Type GAS, 10 μg/ml FITC-conjugated peptide): 11840 ± 230 relative fluorescent units | binding to purified HA (in words) ([2]; fluorometry): bound specifically | Relative binding ([2]; substrate in well: HA (1 mg/ml), 10 μg/ml FITC-conjugated peptide): 9640 ± 360 relative fluorescent units | reduction in translocation of S. equi (S. equi): 98% | binding to unencapsulated GAS (in words) (Acapsular GAS; [7]): not to unencapsulated GAS | Relative binding (Acapsular GAS; substrate in well: Acapsular GAS, 10 μg/ml FITC-conjugated peptide): 1940 ± 70 relative fluorescent units | reduction in the translocation of GAS across an intact keratinocyte culture (GAS [3]; 100 μg/ml, treatment of keratinocytes or bacteria): 75-85% | reduction in translocation of P. multocida (P. multocida): 98% | reduction in translocation of Staphylococcus aureus (Staphylococcus aureus): 73% | internalization of HA-encapsulated bacteria by keratinocytes relative to SCRM-treated or untreated samples [4]: approximately 40 fold | log increase in CFU's (GAS [5]): over 1 log

VSKLRSQLVKRKQN (VSKLRSQLVKRKQN-NH2) [HABP33]
decrease in the numbers of translocating GAS bacteria (GAS [3]; two hours after addition of GAS): ~90%

CC[C@H](C)[C@H](NC(=O)CN)C(=O)NCC(=O)N[C@@H](C)C(=O)N[C@H](C(=O)N[C@@H](CC(C)C)C(=O)N[C@@H](CCCCN)C(=O)N[C@H](C(=O)N[C@@H](CC(C)C)C(=O)N[C@H](C(=O)N[C@H](C(=O)NCC(=O)N[C@@H](CC(C)C)C(=O)N1CCC[C@H]1C(=O)N[C@@H](C)C(=O)N[C@@H](CC(C)C)C(=O)N[C@H](C(=O)N[C@@H](CO)C(=O)N[C@@H](Cc1c[nH]c2ccccc12)C(=O)N[C@H](C(=O)N[C@@H](CCCCN)C(=O)N[C@@H](CCCNC(=N)N)C(=O)N[C@@H](CCCCN)C(=O)N[C@@H](CCCNC(=N)N)C(=O)N[C@@H](CCC(N)=O)C(=O)N[C@@H](CCC(N)=O)C(N)=O)[C@@H](C)CC)[C@@H](C)CC)[C@@H](C)O)[C@@H](C)O)C(C)C)C(C)C [Melittin]
average net binding to HA [6]: −503±5 RU | concentration giving levels of hemolysis comparable to HABP35 at 512 μg/mL (human red blood cells; 1% human red blood cells, 12 hours): less than 1 μg/mL | potency as a hemolytic agent relative to HABP35 (human red blood cells; comparison with HABP35): more than 500 times

STMMSRSHKTRSHHV (all d isomers) ([dS][dT][dM][dM][dS][dR][dS][dH][dK][dT][dR][dS][dH][dH][dV]-NH2) [HABP42]
bacterial burden at the wound site compared with PBS (S. aureus strain PS80): decrease in bacterial burden
